Experiments:
[1] = Rubine Dye test for substantivity on hair (chromameter); details: Example 3, second matrix of prototypes
Text: The substrate (i.e., surface to which they are applied) in cosmetic applications is either the hair or the skin. […] Cationic conditioning agents act by binding a moiety, typically a long chain alkyl group, to the hair or skin by electrostatic attraction (ionic bonding), but also, weaker forces such as dipole-dipole interactions, and furthermore van der Waals forces can assist in substrate binding. Substantivity is a term used to describe how well a conditioning agent binds to the surface of the substrate. Substantivity of hair conditioning agents is often determined by performing the Rubine Dye test. The Rubine Dye test is designed to show how much of the conditioning ingredient adheres to the hair. Results from the Rubine Dye test are normally evaluated by comparison to some known standard or benchmark.
The polyesteramine prototypes were tested internally for substantivity using the Rubine Dye test protocol. In the Rubine Dye test, the prototypes were benchmarked against Dehyquart® L-80 (dicocoylethyl hydroxyethylmonium methosulfate (and) propylene glycol), a commercial ester quaternary. The materials and equipment used in performing the Rubine Dye analysis were:
The protocol used to perform the Rubine Dye analysis on polyesteramine prototypes and Dehyquart® L-80 and the compositions of ingredients used is described below.
First, a stock dye solution was prepared using the following formula and preparation procedure: […]
In a small vessel, deionized water, Lumicrease Bordeaux 3LR Powder, and glacial acetic acid were agitated at about 20 to about 25° C. until a solution was obtained. […]
From about 0.95 to about 1.05 grams of hair was weighed out and glued onto pre-cut plastic sheets (1.5″×1.5″) using a hot glue gun to attach the swatches to the sheets. […] Quantitative comparisons of dye up-take and relative substantivity of each polymer were performed using a Minolta chromameter. Additionally, dye up-take was evaluated qualitatively by taking photographs of the hair swatches using a digital camera. […]

[2] = test system: EpiOccular® model made of human-derived epidermal keratinocytes cultured to make them similar to human corneal tissue; assay type: cell-based
Procedure: Irritancy to the eyes and to the skin was tested in-vitro using the EpiDerm® and EpiOccular® test models. EpiDerm® is a human test model of skin made up of normal epidermal keratinocytes. The EpiOccular® model is made of human-derived epidermal keratinocytes cultured to make them similar to human corneal tissue. In each of the tests, tissue samples are treated with the test article for various exposure times. Following treatment, the viability of the tissue is determined using MTT uptake and conversion, and the absorbance of the sample is measured at 540 nanometers (nm) wavelength using a reference wavelength of 690 nm. The viability is expressed as a percentage of control values. The mean percentage viability for each time point is used to calculate the ET50, which represents the time at which the tissue viability is reduced 50% compared to control tissue. […] Typically, higher molecular weight results in lower eye and skin irritancy.

With CCCCCCCCCCCCCCCCCC(=O)NCCCN(C)C [Lexamine ® S-13, stearamidopropyldimethylamine] as the compound, how does the a-scale value ([1]; higher a = more deposition) read?
The a-scale value was 19.16.

And the L-scale value ([1]; lower L = more deposition)?
The L-scale value was 65.15.

What about the b-scale value ([1]; lower b = more deposition) of the same compound?
Its b-scale value is 8.57.

Which “EpiOcular ® ET50” value ([2]; exposure times 16, 64 and […], time at which tissue viability is reduced 50% vs control) does the source give for CCCCCCCCCCCCCCCC[N+](C)(C)C.[Cl-] [cetrimonium chloride] here?
Its value is 116.9 min.

What about the “irritancy classification, eyes” value ([2]; from EpiOcular ET50) of the same compound?
The value was “more irritating”.

— US20080279795A1, “Tertiary Amine Functional Complex Polyester Polymers And Methods Of Production And Use” (priority 2003, published 2008)
